Assay results: US8324197B2, “Transplatinum complexes with N2O2 donor sets as cytotoxic and antitumor agents” (Virginia Commonwealth University, priority 2005, dated 2012)
Where two headings read alike, the source gives them in different places. Marks after values point to notes of the source that are not given here.

Key:
[1] = cited from earlier work; for k1, first hydrolysis step to the monoaqua complex: analogous dichloride complexes, I=0.1 M
[2] = Initial hydrolysis of TPA carboxylates monitored by HPLC at 37° C.; assay type: physicochemical; settings: H2O; for hydrolysis occurring after 9 h: HPLC; for k1, initial hydrolysis rate constant: I=0.02 M
Protocol: The slowest initial hydrolysis rate was found for complex 2c t-[Pt(OAc)2(NH3)(2-pic)], with just 4% hydrolysis occurring after 9 h. The hydrolysis of the formate complex 4f was the fastest, with 24% hydrolysis occurring after 9 h. The hydrolysis rates of the acetate complexes followed the pattern 2c<4c<3c. […] Thus, hydrolysis of the acetate complexes is slowed by an approximate order of magnitude compared to their direct chloro analogs but there is little difference in the present case between 3- and 4-picoline. Steric hindrance therefore predominates over the electronic effects of the methyl group. In the case of the chloride complexes, the 3-pic directs less electron density to the platinum rendering it less nucleophilic relative to the 2-pic and 4-pic. 14 We observe the same trend in the acetate complexes, but the effect is lessened due to the carboxylate group being a weak ligand, with a low trans influence and trans effect.^11

[3] = corresponding diaqua complex; other compounds of the series 2-4c given for comparison (refs 11, 14); cited from earlier work
[4] = Solubility of TPA carboxylates, Example 6; assay type: physicochemical; settings: aqueous; table title ambient temperature, text 37° C.
[5] = cited from earlier work; for k1, rate constant for the first aquation step: literature values of other platinum compounds
[6] = test system: 41M; assay: Growth inhibition in human ovarian cancer cell line panel, 96 h exposure; assay type: cell-based; settings: for 41M RF: RF = (IC50 Resistant)/(IC50 Sensitive)
Protocol: (§1) It is noteworthy that the acetate compounds maintain cytotoxicity with low resistance factors in all cases. The trans-[Pt(OAc)2(NH3)2] compound is also very water-soluble but the cytotoxicity of >100 μM confirms the requirement for a planar amine to enhance cytotoxicity in the trans geometry.

[7] = test system: CH1; assay: as above; assay type: cell-based; settings: for CH1 RF: RF = (IC50 Resistant)/(IC50 Sensitive)
Protocol: as §1

[8] = literature; cited from earlier work
[9] = pKa of corresponding TPA diaqua complexes by potentiometric titration with NaOH; assay type: physicochemical; settings: corresponding diaqua complex trans-[Pt(OH2)2(L)(L′)], ambient temperature
Protocol: (§2) The aqueous solubility of the acetate compounds and the acid dissociation constants of the corresponding aqua species are given in Table 1. Use of acetates enhances aqueous solubility which is dependent on the exact nature of the donor ligands. The pKa values were determined by potentiometric titration of solutions of trans-[Pt(H2O)2(L)(L′)]^2+ (formed by the dissolution of the isolated trans-[Pt(NO3)2(L)(L′)]) with NaOH. […] (X=2,3,4-Me).^30

[10] = Aqueous solubility of TPA-acetate complexes (sequential addition of water); assay type: physicochemical; settings: ambient temperature
Protocol: as §2

[11] = test system: ovarian cancer cell line panel; assay: Cytotoxicity in ovarian cancer cell line panel (cell line not specified); assay type: cell-based, human
Protocol: as §1

[12] = test system: A2780; assay: Growth inhibition in human ovarian cancer cell line panel, 96 h exposure; assay type: cell-based; settings: for A2780 RF: RF = (IC50 Resistant)/(IC50 Sensitive)
Protocol: as §1

Cc1ccccn1.N.[Cl][Pt][Cl] [2-pic]
k1, first hydrolysis step to the monoaqua complex [1]: 2.6e-05 s⁻¹

CC(=O)[O-].CC(=O)[O-].Cc1ccccn1.N.[Pt+2] [2c, trans-[Pt(OAc)2(NH3)(2-pic)]]
hydrolysis occurring after 9 h [2]: 4% | k1, initial hydrolysis rate constant [2]: 1.07e-06 s⁻¹ | pKa1 [3]: 4.03 | pKa2 [3]: 7.1 | Solubility (mg/mL), TPA Acetates [4]: 10 mg/mL

Cc1cccnc1.N.[Cl][Pt][Cl] [3-pic]
k1, first hydrolysis step to the monoaqua complex [1]: 0.000127 s⁻¹

CC(=O)[O][Pt][O]C(C)=O.Cc1cccnc1.N [3c]
k1, initial hydrolysis rate constant [2]: 3.52e-06 s⁻¹ | pKa1 [3]: 3.97 | pKa2 [3]: 6.78 | Solubility (mg/mL), TPA Acetates [4]: 11.4 mg/mL

Cc1ccncc1.N.[Cl][Pt][Cl] [4-pic]
k1, first hydrolysis step to the monoaqua complex [1]: 5.2e-05 s⁻¹

CC(=O)[O][Pt][O]C(C)=O.Cc1ccncc1.N [4c]
k1, initial hydrolysis rate constant [2]: 3.26e-06 s⁻¹ | pKa1 [3]: 3.94 | pKa2 [3]: 6.88 | Solubility (mg/mL), TPA Acetates [4]: 13.2 mg/mL

Cc1ccncc1.N.O=C(CO)[O][Pt][O]C(=O)CO [4d, trans-[Pt(OAcOH)2(NH3)(4-pic)]]
k1, initial hydrolysis rate constant [2]: 5.61e-06 s⁻¹

Cc1ccncc1.N.O=C([O-])C(F)(F)F.O=C([O-])C(F)(F)F.[Pt+2] [4g, trans-[Pt(Tfa)2(NH3)(4-pic)]]
Solubility (mg/mL), TPA Substituted Carboxylates [4]: Insoluble

Cc1ccncc1.N.O=C([O-])c1ccccc1.O=C([O-])c1ccccc1.[Pt+2] [4h, trans-[Pt(OBz)2(NH3)(4-pic)]]
Solubility (mg/mL), TPA Substituted Carboxylates [4]: Insoluble

[NH2][Pt]1([NH2])[O]C(=O)C2(CCC2)C(=O)[O]1 [Carboplatin, cis-[Pt(CBDCA)(NH3)2]]
hydrolysis rate constant ([5]; aqueous solution): < 5e-09 s⁻¹ | k1, rate constant for the first aquation step [5]: <10^−8 s^−1 | hydrolysis rate ([5]; phosphate buffer at 310 K): 7.2e-07 s⁻¹

N.N.[Cl][Pt][Cl] [Cisplatin, cis-[PtCl2(NH3)2], reference compound]
hydrolysis rate ([1]; at 20° C., literature): 5.18e-05 s⁻¹ | IC50 [6]: 1.4 µM | 41M RF [6]: (6.1) | IC50 [7]: 0.1 µM | CH1 RF [7]: (6.7) | k1, rate constant for the first aquation step [5]: 5.18e-05 s⁻¹

N.N.[Cl][Pt+2][Cl] [Transplatin, trans-[PtCl2(NH3)2]]
time to complete reaction with N-AcMet [8]: ≤ 5 h | k1, rate constant for the first aquation step [5]: 0.00019 s⁻¹

NCCNCCN.[Cl-].[Pt+2] [[PtCl(dien)]+]
k1, rate constant for the first aquation step [5]: (6.50 ± 0.13) × 10^−5 s^−1

CCC[NH][Pt]([NH]CCC)([O]C(=O)CCl)[O]C(=O)CCl [cis-[Pt(PrNH2)2(ClCH2CO2)2]]
rate constant of substitution by water of the first carboxylate ligand ([5]; cis carboxylate complex, literature): 4.38e-05 s⁻¹

CC(=O)[O][Pt][O]C(C)=O.N.N [trans-[Pt(OAc)2(NH3)2]]
pKa1 [9]: 4.0^b | pKa2 [9]: 7.08 | Solubility [10]: 21 mg/mL | IC50 [11]: > 100 µM

trans-[Pt(OAcCl)2(NH3)(4-pic)] [4f]
hydrolysis occurring after 9 h [2]: 24% | Solubility (mg/mL), TPA Substituted Carboxylates [4]: 0.29 mg/mL

trans-[diacetato(ammine)(quinoline)platinum(II)] [trans-[Pt(OAc)2(NH3)(quin)]]
IC50 [6]: 22 µM | 41M RF [6]: (1.00) | IC50 [12]: 13 µM | A2780 RF [12]: (1.46) | IC50 [7]: 17 µM | CH1 RF [7]: (0.48)

trans-[diacetatobis(pyridine)platinum(II)] [trans-[Pt(OAc)2(py)2]]
IC50 [6]: 14 µM | 41M RF [6]: (0.32) | IC50 [12]: 12.8 µM | A2780 RF [12]: (0.90) | IC50 [7]: 19 µM | CH1 RF [7]: (0.22)
